Test results taken from patent publication US8933070B2, “Methods of targeting PTEN mutant diseases and compositions therefor” (University Health Network, priority 2010, dated 2015).

What was measured:
Test in all cases: Cell growth inhibition, SRB assay, extended panel
Assay type in all cases: cell-based
[1] = tested on: MDA-MB-231 breast cancer cell line; conditions: Homo sapiens, MDA-MB-231, read-out: GI50 Range MDA-MB-231
Procedure: Breast cancer and normal cells were seeded at various concentrations, ranging from 1500 to 4000 per 80 μl according to cell growth rate, into 96-well plates 24 hours before compound overlay. Each 10 mM stock solution in 100% DMSO of the compounds was diluted with Opti-MEM I Reduced-Serum Medium (Invitrogen, Canada) to make concentration ranges from 50 nM to 250 μM. 20 μl from each concentration was added to the cells to make the final concentration range from 10 nM to 50 μM. The cells were cultured at 37° C. for 5 days before the Sulforhodamine B (SRB) assay was performed to assess cell survival. SRB is a water-soluble dye that binds to the basic amino acids of cellular proteins. Thus, colorimetric measurement of the bound dye provides an estimate of the total protein mass and is related to cell number. The cells were fixed in situ by gently aspirating off the culture media and adding 50 μl ice-cold 10% Tri-chloroacetic Acid (TCA) per well and incubation at 4° C. for 30-60 min. The plates were washed with tap water five times and allowed to air dry for 5 min. […] Absorbances were read at 570 nm. The cell survival percentage at each compound concentration was calculated over the cell DMSO control, which was growing in the presence of 0.1% DMSO (0.5% in the case of 50 μM compounds). Cell viability GI50 values were calculated using GraphPad PRISM software (GraphPad Software, Inc.).

[2] = tested on: Colo 205 colon cancer cell line; conditions: Homo sapiens, COLO 205, read-out: GI50 Range Colo 205
Procedure: (§1) Breast cancer cells (MCF-7, MDA-MB-468 and HCC1954), colon cancer cells (SW620) and lung cancer cells (A549), together with human mammary epithelial primary cells (HMEC) were seeded (1000 to 4000 per 80 μl per well depending on the cell growth rate) into 96-well plates 24 hours before compound overlay. Compounds were prepared as 10 mM stock solutions in 100% DMSO which were diluted with DMEM (Dulbecco's Modified Eagle's Medium) cell growth Medium (Invitrogen, Canada) containing 10% FBS (Fetal Bovine Serum) to concentrations ranging from 50 nM to 250 μM. Aliquots (20 μl) from each concentration were overlaid to 80 μl of the pre-seeded cells in the 96-plates to make final concentrations of 10 nM to 50 μM. The cells were cultured for 5 days before the Sulforhodamine B (SRB) assay was performed to determine the compound's cell growth inhibition activity.
(§2) Sulforhodamine B (Sigma, Canada) is a water-soluble dye that binds to the basic amino acids of cellular proteins. Thus, colorimetric measurement of the bound dye provides an estimate of the total protein mass that is related to the cell number. The cells are fixed in situ by gently aspirating off the culture media and adding 50 μl ice cold 10% Trichloroacetic Acid (TCA) per well and incubated at 4° C. for 30-60 min. The plates are washed with water five times and allowed to air dry for 5 min. Addition of 50 μl 0.4% (w/v) SRB solution in 1% (v/v) acetic acid to each well and incubatation for […] at RT completes the staining reaction. Following staining, plates are washed four times with 1% acetic acid to remove unbound dye and then allowed to air dry for 5 min. The stain is solubilized with 100 μl of 10 mM Tris pH 10.5 per well. Absorbance is read at 570 nm.
(§3) The percentage (%) of relative growth inhibition was calculated by comparing to DMSO-treated only cells (100%). GI50's were determined for compounds with cytotoxic activity. The GI50 was calculated using GraphPad PRISM software (GraphPad Software, Inc., USA).
(§4) The SRB assay described above was used to assay test compounds against the extended panel (Table 6).

[3] = tested on: T-47D breast cancer cell line; conditions: Homo sapiens, T47D, read-out: GI50 Range T-47D
Procedure: as §1, §2, §3, §4

[4] = tested on: SK-OV-3 ovarian cancer cell line; conditions: Homo sapiens, SK-OV-3, read-out: GI50 Range SK-OV-3
Procedure: as §1, §2, §3, §4

[5] = tested on: Hs578T breast cancer cell line; conditions: Homo sapiens, Hs-578T, read-out: GI50 Range Hs578T
Procedure: as §1, §2, §3, §4

[6] = tested on: OVCAR-3 ovarian cancer cell line; conditions: Homo sapiens, OVCAR-3, read-out: GI50 Range OVCAR-3
Procedure: as §1, §2, §3, §4

[7] = tested on: A172 brain cancer cell line; conditions: Homo sapiens, A 172, read-out: GI50 Range A172
Procedure: as §1, §2, §3, §4

[8] = tested on: SK-N-SH brain cancer cell line; conditions: Homo sapiens, read-out: GI50 Range SK-N-SH
Procedure: as §1, §2, §3, §4

[9] = tested on: 518A2 melanoma cell line; conditions: Homo sapiens, 518A2, read-out: GI50 Range 518A2
Procedure: as §1, §2, §3, §4

[10] = tested on: HCT-15 colon cancer cell line; conditions: Homo sapiens, HCT-15, read-out: GI50 Range HCT-15
Procedure: as §1, §2, §3, §4

[11] = tested on: BT-474 breast cancer cell line; conditions: Homo sapiens, BT-474, read-out: GI50 Range BT-474
Procedure: as §1, §2, §3, §4

[12] = tested on: H358 lung cancer cell line; conditions: Homo sapiens, NCI-H358, read-out: GI50 Range H358
Procedure: as §1, §2, §3, §4

[13] = tested on: Hs683 brain cancer cell line; conditions: Homo sapiens, Hs 683, read-out: GI50 Range Hs683
Procedure: as §1, §2, §3, §4

[14] = tested on: 184A1 immortalized breast cell line; conditions: 184A1, read-out: GI50 Range 184A1
Procedure: as §1, §2, §3, §4

[15] = tested on: SKBr-3 breast cancer cell line; conditions: Homo sapiens, SK-BR-3, read-out: GI50 Range SKBr-3
Procedure: as §1, §2, §3, §4

[16] = tested on: SW626 ovarian cancer cell line; conditions: Homo sapiens, SW626, read-out: GI50 Range SW626
Procedure: as §1, §2, §3, §4

[17] = tested on: PC-3 prostate cancer cell line; conditions: read-out: GI50 Range PC-3
Procedure: as §1, §2, §3, §4

[18] = tested on: HCT116 p53^+/+ colon cancer cell line; conditions: Homo sapiens, HCT-116, read-out: GI50 Range HCT116 p53^+/+
Procedure: as §1, §2, §3
(§5) In addition to the cell lines tested as described above, selected compounds have been assayed against an extended panel. These include: breast cancer cell lines (T-47D, MDA-MB-231, Hs578T, 8T-474, SKBr-3 and HCC1954), a lung cancer cell line (H358), brain cancer cell lines (A172, Hs683 and SK-N-SH), colon cancer cell lines (Colo 205, HCT-15, HCT116 p53^+/+ and HCT116 p53^−/−), ovarian cancer cell lines (OVCAR-3, SK-OV-3 and SW626), a melanoma cell line (518A2), a prostate cancer cell line (PC-3) and an immortalized breast cell line (184A1). The SRB assay described above was used to assay test compounds against the extended panel (Table 6).

[19] = tested on: HCT116 p53^−/− colon cancer cell line; conditions: Homo sapiens, HCT-116, read-out: GI50 Range HCT116 p53^−/−
Procedure: as §1, §2, §3, §5

Measured: GI50

COc1ccc2c(c1)/C(=C\c1ccc3c(/C=C/c4ccc(N5CCN(C)CC5)nc4)n[nH]c3c1)C(=O)N2 [Compound 3]
< 5 µM: all assays above
